The text below walks through data of PMC9081825 (2022).

Holding throughout (test): QD fluorescence recovery on release from amSWCNT
Experiment [1] deals with A08min-GQD (nanocomplex 3) (DNA, aptamer) GGCAGTGTGGGCGAATCTATGCGTACCGTTCGATATCGTG
Conditions: 137 mM NaCl, 2.7 mM KCl; phosphate buffer pH 7.4; OTA 0-1.2 μM; 525 nm; 0.12 mg/mL amSWCNT.

Experiment [2] relates to A08min-RQD (nanocomplex 4) (DNA, aptamer) GGCAGTGTGGGCGAATCTATGCGTACCGTTCGATATCGTG
Particulars: 137 mM NaCl, 2.7 mM KCl; phosphate buffer pH 7.4; OTA 0-1.2 μM; 650 nm; 0.12 mg/mL amSWCNT.

Experiment [3] deals with 1.12.2-GQD (nanocomplex 3) (DNA, aptamer) GATCGGGTGTGGGTGGCGTAAAGGGAGCATCGGACA
Conditions: 120 mM NaCl, 5 mM KCl, 10 mM CaCl2, 10 mM HEPES pH 7.0 (buffer listed for 1.12.2 in supplement).

The subject of experiment [4] is 1.12.2-RQD (nanocomplexes 4 and 5) (DNA, aptamer) GATCGGGTGTGGGTGGCGTAAAGGGAGCATCGGACA
Particulars: 120 mM NaCl, 5 mM KCl, 10 mM CaCl2, 10 mM HEPES pH 7.0 (buffer listed for 1.12.2 in supplement).

For experiment [5], the system named is A08min-QDs (multi-QD mixture, nanocomplex 1) (DNA, aptamer) GGCAGTGTGGGCGAATCTATGCGTACCGTTCGATATCGTG
Particulars: 137 mM NaCl, 2.7 mM KCl; phosphate buffer pH 7.4; tested at 1.5 μM; 530 nm.

In the case of `C[C@@H]1Cc2c(Cl)cc(C(=O)N[C@@H](Cc3ccccc3)C(=O)O)c(O)c2C(=O)O1`, the binding entry in experiment [1], in experiment [2], in experiment [3] and in experiment [4] was “yes” throughout.
With `CCCC[C@@H](C)[C@@H](OC(=O)C[C@@H](CC(=O)O)C(=O)O)[C@H](C[C@@H](C)C[C@H](O)CCCC[C@@H](O)C[C@H](O)[C@H](C)N)OC(=O)C[C@@H](CC(=O)O)C(=O)O`, the binding result in experiment [5] was “no”.
The same measure, in the same setting: then `CC(=O)CC(c1ccccc1)c1c(O)c2ccccc2oc1=O` (centres unmarked), with “no”; and `C[C@@H]1Cc2ccc(C(=O)N[C@@H](Cc3ccccc3)C(=O)O)c(O)c2C(=O)O1`, with “no”; and `O=C1C=C2C(=CCOC2O)O1` (centres unmarked), with “no”.
